Reference: patent US8962615B2, “Cell migration modulating compounds” (University of Dundee, priority 2005, dated 2015)

System: human skin fibroblasts
Assay: migration of human skin fibroblasts in the 3D collagen gel assay
Type: cell-based
Details: relative to control fibroblasts in the absence of test compound, FIG. 3
Excerpt: The results were plotted and are shown on the graph depicted in FIG. 3 in which compound (IV) is referred to as BDP 1. The data are expressed as fold-stimulation of migration relative to control fibroblasts in the absence of test compound. The range of base-line (control) migration is indicated by the horizontal dotted lines.

## COC(=O)CC1Nc2c(cccc2OCCC(C)C)CN(C)C1=O (stereo not shown) [Compound (IV)]
  fold-stimulation of migration relative to control fibroblasts: stimulated target cell migration with a bell-shaped dose-response similar in potency and profile to that of IGDS
